Measured values published in patent US12577248B2, “Substituted [1,2,4]triazolo[1,5-a]pyrazines as spleen tyrosine kinase inhibitors” (NANJING RUIJIE PHARMA CO., LTD., priority 2020, dated 2026).

What was measured:
SYK kinase = SYK kinase (Homo sapiens, UniProt P43405); test: SYK kinase assay (HTRF KinEASE-TK); type: biochemical; settings: class symbols, read-out: Syk inhibition IC50
Outline: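 SYK pre-incubated with compound for 10 min at room temperature, then reacted with biotinylated TK substrate and ATP for 30 min in buffer with 5 mM MgCl2, 1 mM MnCl2 and 1 mM DTT. HTRF 665/615 ratio read after 1 h detection. IC50 from variable-slope fit.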

Ba/F3-TEL-SYK cells = molecular target: T1, Ba/F3-TEL-SYK cells (Homo sapiens, UniProt P43405); test: Ba/F3-TEL-SYK cell-based assay (CellTiter-Glo proliferation); settings: 72 hr, read-out: BaF3 Cell assay IC50
T1 construct: fused on or other part: N-terminal part of TEL (ETV6) with its oligomerising PNT/SAM domain, fused before the SYK part that carries the kinase domain; P41212 (Transcription factor ETV6)
Protocol: CellTiter-Glo® Luminescent Cell Viability Assay was used to determine the number of viable cells in culture based on quantitation of the ATP present, as an indicator of metabolically active cells. The assay was performed in the following steps: First, the testing compounds were dissolved in DMSO to make a stock solution. The stocks (10 mM) were then diluted to varying concentrations: […], 0.305 and 0.102 μM. An aliquot of 0.2 μl of diluted compounds were added to the 384 well assay plate. Second, added 40 μl of cell suspension with 800 Ba/F3-TEL-SYK cells into each well and incubated the plate at 37° C., 5% CO2 for 72 hr. Then, added 20 μl Cell Titer-Glo Reagent into each well of the cell culture plate. Mixed the contents for 2 min on an orbital shaker to lyse cells, and rest the plate at room temperature for 30 min. Finally, luminescence values were obtained using an Envision 2104 plate reader (PerkinElmer) and calculated the average data and Standard Deviation (SD) of DMSO and Reference (GS-9973, 1 μM) as high control and low control. To determine the IC50 value, fit the data using non-linear regression equation.

[1] = In vivo pharmacokinetic analysis, single dose, ICR mice; settings: mouse, male, plasma; for AUC(0-inf) / AUC(0-t) / Cmax / Tmax / half-life: single dose; for bioavailability: PO 10 mg/kg vs IV 2 mg/kg, read-out: F % (bioavailability)
Protocol: This is a single-dose study in ICR mice (male, n=9/administration) with intravenous and oral administration. Compound concentrations in plasma were measured and calculated for pharmacokinetic (PK) analysis via WinNonLin 6.4.

COc1cc(Nc2nc(-c3ccc4cn[nH]c4c3)cn3ncnc23)ccc1N1CCOCC1 [I1, 6-(1H-indazol-6-yl)-N-(3-methoxy-4-morpholinophenyl)-[1,2,4]triazolo[1,5-a]pyrazin-8-amine]
IC50 (SYK kinase): ≤ 50 nM | GI50 (Ba/F3-TEL-SYK cells): ≤ 50 nM | AUC(0-inf) ([1]; IV Administration (2 mg/kg)): 983 ng·h/mL | AUC(0-t) ([1]; IV Administration (2 mg/kg)): 980 ng·h/mL | Cmax ([1]; IV Administration (2 mg/kg)): 2520 ng/mL | Tmax ([1]; IV Administration (2 mg/kg)): 4.8 min | half-life ([1]; IV Administration (2 mg/kg)): 15 min | AUC(0-inf) ([1]; PO Administration (10 mg/kg)): 448 ng·h/mL | AUC(0-t) ([1]; PO Administration (10 mg/kg)): 381 ng·h/mL | Cmax ([1]; PO Administration (10 mg/kg)): 88.8 ng/mL | Tmax ([1]; PO Administration (10 mg/kg)): 30 min | half-life ([1]; PO Administration (10 mg/kg)): 54 min | bioavailability [1]: 7.77%

COc1cc(Nc2nc(-c3ccc4cc[nH]c4c3)cn3ncnc23)ccc1N1CCOCC1 [I2, 6-(1H-indol-6-yl)-N-(3-methoxy-4-morpholinophenyl)-[1,2,4]triazolo[1,5-a]pyrazin-8-amine]
IC50 (SYK kinase): ≤ 50 nM | GI50 (Ba/F3-TEL-SYK cells): ≤ 50 nM | AUC(0-inf) ([1]; IV Administration (2 mg/kg)): 1010 ng·h/mL | AUC(0-t) ([1]; IV Administration (2 mg/kg)): 1010 ng·h/mL | Cmax ([1]; IV Administration (2 mg/kg)): 1870 ng/mL | Tmax ([1]; IV Administration (2 mg/kg)): 4.8 min | half-life ([1]; IV Administration (2 mg/kg)): 34.2 min | AUC(0-inf) ([1]; PO Administration (10 mg/kg)): 2260 ng·h/mL | AUC(0-t) ([1]; PO Administration (10 mg/kg)): 1960 ng·h/mL | Cmax ([1]; PO Administration (10 mg/kg)): 696 ng/mL | Tmax ([1]; PO Administration (10 mg/kg)): 15 min | half-life ([1]; PO Administration (10 mg/kg)): 168 min | bioavailability [1]: 38.9%

c1nc2c(Nc3ccc(N4CCOCC4)cc3)nc(-c3ccc4cc[nH]c4c3)cn2n1 [I10, 6-(1H-indol-6-yl)-N-(4-morpholinophenyl)-[1,2,4]triazolo[1,5-a]pyrazin-8-amine]
IC50 (SYK kinase): ≤ 50 nM | GI50 (Ba/F3-TEL-SYK cells): 50 to 500 nM | AUC(0-inf) ([1]; IV Administration (2 mg/kg)): 11400 ng·h/mL | AUC(0-t) ([1]; IV Administration (2 mg/kg)): 11200 ng·h/mL | Cmax ([1]; IV Administration (2 mg/kg)): 8810 ng/mL | Tmax ([1]; IV Administration (2 mg/kg)): 4.8 min | half-life ([1]; IV Administration (2 mg/kg)): 99 min | AUC(0-inf) ([1]; PO Administration (10 mg/kg)): 28500 ng·h/mL | AUC(0-t) ([1]; PO Administration (10 mg/kg)): 28500 ng·h/mL | Cmax ([1]; PO Administration (10 mg/kg)): 2160 ng/mL | Tmax ([1]; PO Administration (10 mg/kg)): 240 min | half-life ([1]; PO Administration (10 mg/kg)): 100 min | bioavailability [1]: 50.8%

COc1cc(Nc2nc(-c3ccc4cn[nH]c4c3)cn3ncnc23)ccc1N1CCC(C)(O)CC1 [I22, 1-(4-((6-(1H-indazol-6-yl)-[1,2,4]triazolo[1,5-a]pyrazin-8-yl)amino)-2-methoxyphenyl)-4-methylpiperidin-4-ol]
IC50 (SYK kinase): ≤ 50 nM | GI50 (Ba/F3-TEL-SYK cells): ≤ 50 nM | AUC(0-inf) ([1]; IV Administration (2 mg/kg)): 429 ng·h/mL | AUC(0-t) ([1]; IV Administration (2 mg/kg)): 428 ng·h/mL | Cmax ([1]; IV Administration (2 mg/kg)): 1320 ng/mL | Tmax ([1]; IV Administration (2 mg/kg)): 4.8 min | half-life ([1]; IV Administration (2 mg/kg)): 12.6 min | AUC(0-inf) ([1]; PO Administration (10 mg/kg)): 125 ng·h/mL | AUC(0-t) ([1]; PO Administration (10 mg/kg)): 115 ng·h/mL | Cmax ([1]; PO Administration (10 mg/kg)): 108 ng/mL | Tmax ([1]; PO Administration (10 mg/kg)): 15 min | half-life ([1]; PO Administration (10 mg/kg)): 28.8 min | bioavailability [1]: 5.38%

c1nc2c(Nc3ccc(N4CCN(C5COC5)CC4)cc3)nc(-c3ccc4cn[nH]c4c3)cn2n1 [I53, 6-(1H-indazol-6-yl)-N-(4-(4-(oxetan-3-yl)piperazin-1-yl)phenyl)-[1,2,4]triazolo[1,5-a]pyrazin-8-amine]
IC50 (SYK kinase): ≤ 50 nM | GI50 (Ba/F3-TEL-SYK cells): ≤ 50 nM | AUC(0-inf) ([1]; IV Administration (2 mg/kg)): 2300 ng·h/mL | AUC(0-t) ([1]; IV Administration (2 mg/kg)): 2290 ng·h/mL | Cmax ([1]; IV Administration (2 mg/kg)): 3960 ng/mL | Tmax ([1]; IV Administration (2 mg/kg)): 4.8 min | half-life ([1]; IV Administration (2 mg/kg)): 590 min | AUC(0-inf) ([1]; PO Administration (10 mg/kg)): 7370 ng·h/mL | AUC(0-t) ([1]; PO Administration (10 mg/kg)): 7330 ng·h/mL | Cmax ([1]; PO Administration (10 mg/kg)): 7520 ng/mL | Tmax ([1]; PO Administration (10 mg/kg)): 15 min | half-life ([1]; PO Administration (10 mg/kg)): 265 min | bioavailability [1]: 64.2%

COc1cc(Nc2nc(-c3ccc4cn[nH]c4c3)cn3ncnc23)ccc1N1CCN(C2COC2)CC1 [I54, 6-(1H-indazol-6-yl)-N-(3-methoxy-4-(4-(oxetan-3-yl)piperazin-1-yl)phenyl)-[1,2,4]triazolo[1,5-a]pyrazin-8-amine]
IC50 (SYK kinase): ≤ 50 nM | GI50 (Ba/F3-TEL-SYK cells): ≤ 50 nM | AUC(0-inf) ([1]; IV Administration (2 mg/kg)): 500 ng·h/mL | AUC(0-t) ([1]; IV Administration (2 mg/kg)): 499 ng·h/mL | Cmax ([1]; IV Administration (2 mg/kg)): 1640 ng/mL | Tmax ([1]; IV Administration (2 mg/kg)): 4.8 min | half-life ([1]; IV Administration (2 mg/kg)): 39 min | AUC(0-inf) ([1]; PO Administration (10 mg/kg)): 151 ng·h/mL | AUC(0-t) ([1]; PO Administration (10 mg/kg)): 145 ng·h/mL | Cmax ([1]; PO Administration (10 mg/kg)): 268 ng/mL | Tmax ([1]; PO Administration (10 mg/kg)): 15 min | half-life ([1]; PO Administration (10 mg/kg)): 46.8 min | bioavailability [1]: 5.81%

c1nc2c(Nc3ccc(N4CCN(C5COC5)CC4)cc3)nc(-c3ccc4cc[nH]c4c3)cn2n1 [I57, 6-(1H-indol-6-yl)-N-(4-(4-(oxetan-3-yl)piperazin-1-yl)phenyl)-[1,2,4]triazolo[1,5-a]pyrazin-8-amine]
IC50 (SYK kinase): ≤ 50 nM | GI50 (Ba/F3-TEL-SYK cells): ≤ 50 nM | AUC(0-inf) ([1]; IV Administration (2 mg/kg)): 4670 ng·h/mL | AUC(0-t) ([1]; IV Administration (2 mg/kg)): 4670 ng·h/mL | Cmax ([1]; IV Administration (2 mg/kg)): 7360 ng/mL | Tmax ([1]; IV Administration (2 mg/kg)): 4.8 min | half-life ([1]; IV Administration (2 mg/kg)): 43.2 min | AUC(0-inf) ([1]; PO Administration (10 mg/kg)): 14500 ng·h/mL | AUC(0-t) ([1]; PO Administration (10 mg/kg)): 14500 ng·h/mL | Cmax ([1]; PO Administration (10 mg/kg)): 14400 ng/mL | Tmax ([1]; PO Administration (10 mg/kg)): 15 min | half-life ([1]; PO Administration (10 mg/kg)): 196 min | bioavailability [1]: 62%

COc1cc(Nc2nc(-c3ccc4cc[nH]c4c3)cn3ncnc23)ccc1N1CCN(C2COC2)CC1 [I58, 6-(1H-indol-6-yl)-N-(3-methoxy-4-(4-(oxetan-3-yl)piperazin-1-yl)phenyl)-[1,2,4]triazolo[1,5-a]pyrazin-8-amine]
IC50 (SYK kinase): ≤ 50 nM | GI50 (Ba/F3-TEL-SYK cells): ≤ 50 nM | AUC(0-inf) ([1]; IV Administration (2 mg/kg)): 1680 ng·h/mL | AUC(0-t) ([1]; IV Administration (2 mg/kg)): 1680 ng·h/mL | Cmax ([1]; IV Administration (2 mg/kg)): 5110 ng/mL | Tmax ([1]; IV Administration (2 mg/kg)): 4.8 min | half-life ([1]; IV Administration (2 mg/kg)): 42.6 min | AUC(0-inf) ([1]; PO Administration (10 mg/kg)): 902 ng·h/mL | AUC(0-t) ([1]; PO Administration (10 mg/kg)): 895 ng·h/mL | Cmax ([1]; PO Administration (10 mg/kg)): 2570 ng/mL | Tmax ([1]; PO Administration (10 mg/kg)): 15 min | half-life ([1]; PO Administration (10 mg/kg)): 89.4 min | bioavailability [1]: 10.7%

CC(C)Oc1cc(Nc2nc(-c3ccc4cc[nH]c4c3)cn3ncnc23)ccc1N1CC2CC1CN2C1COC1 (stereo not drawn) [I81, 6-(1H-indol-6-yl)-N-(3-isopropoxy-4-(5-(oxetan-3-yl)-2,5-diazabicyclo[2.2.1]heptan-2-yl)phenyl)-[1,2,4]triazolo[1,5-a]pyrazin-8-amine]
IC50 (SYK kinase): 50 to 500 nM | GI50 (Ba/F3-TEL-SYK cells): 500 to 5000 nM

c1nc2c(Nc3ccc(N4CC5CC4CN5C4COC4)cc3)nc(-c3ccc4cc[nH]c4c3)cn2n1 (stereo not drawn) [I82, 6-(1H-indol-6-yl)-N-(4-(5-(oxetan-3-yl)-2,5-diazabicyclo[2.2.1]heptan-2-yl)phenyl)-[1,2,4]triazolo[1,5-a]pyrazin-8-amine]
IC50 (SYK kinase): ≤ 50 nM | GI50 (Ba/F3-TEL-SYK cells): 500 to 5000 nM
